Test results as given in the NIST ThermoML archive (doi:10.1021/je030102f).
Numbers after ± are expanded uncertainties.

Columns and labels:
[1] = 101.33 kPa, Liquid, vibrating tube
[2] = xn = mol fraction of the nth substance listed; conditions: 101.33 kPa, Liquid, vibrating tube

| Compound | mass density ([1]; 283.15 K) | mass density ([1]; 318.14 K) | mass density ([1]; 323.14 K) | mass density ([1]; 288.15 K) | mass density ([1]; 293.15 K) | mass density ([1]; 298.15 K) | mass density ([1]; 303.14 K) | mass density ([1]; 308.15 K) | mass density ([1]; 313.14 K) | mass density ([2]; 283.15 K, x2 = 0) | mass density ([2]; 318.14 K, x2 = 0) | mass density ([2]; 323.14 K, x2 = 0) | also measured |
| --- | --- | --- | --- | --- | --- | --- | --- | --- | --- | --- | --- | --- | --- |
| O [water] | 999.691 ± 0.082 kg/m3 | 990.13 ± 0.084 kg/m3 | 988.003 ± 0.084 kg/m3 |  |  |  |  |  |  |  |  |  |  |
| CCC(=O)O [propanoic acid] | 1004.11 ± 0.51 kg/m3 | 966.24 ± 0.49 kg/m3 |  | 998.688 ± 0.51 kg/m3 | 993.261 ± 0.51 kg/m3 | 987.847 ± 0.51 kg/m3 | 982.44 ± 0.5 kg/m3 | 977.037 ± 0.5 kg/m3 | 971.635 ± 0.5 kg/m3 |  |  |  | mass density ([1]; 323.15 K): 960.843 ± 0.49 kg/m3 |
| CC(C)=O [acetone] + CCC(=O)O |  |  |  |  |  |  |  |  |  |  |  |  | mass density ([2]; 283.15 K, x1 = 1): 801.669 ± 0.14 kg/m3; mass density ([2]; 288.15 K, x1 = 1): 796.037 ± 0.14 kg/m3; mass density ([2]; 293.15 K, x1 = 1): 790.355 ± 0.14 kg/m3; mass density ([2]; 298.15 K, x1 = 1): 784.638 ± 0.14 kg/m3; mass density ([2]; 303.14 K, x1 = 1): 778.876 ± 0.14 kg/m3; mass density ([2]; 308.15 K, x1 = 1): 773.065 ± 0.14 kg/m3; mass density ([2]; 313.14 K, x1 = 1): 767.205 ± 0.14 kg/m3; mass density ([2]; 318.14 K, x1 = 1): 761.288 ± 0.14 kg/m3; mass density ([2]; 323.14 K, x1 = 1): 755.314 ± 0.14 kg/m3 |
| O [water] + CC(C)=O |  |  |  |  |  |  |  |  |  | 999.691 ± 0.082 kg/m3 | 990.13 ± 0.084 kg/m3 | 988.003 ± 0.084 kg/m3 |  |
| CC(C)=O [acetone] | 801.669 ± 0.14 kg/m3 | 761.288 ± 0.14 kg/m3 | 755.314 ± 0.14 kg/m3 | 796.037 ± 0.14 kg/m3 | 790.355 ± 0.14 kg/m3 | 784.638 ± 0.14 kg/m3 | 778.876 ± 0.14 kg/m3 | 773.065 ± 0.14 kg/m3 | 767.205 ± 0.14 kg/m3 |  |  |  |  |
| O [water] + CCC(=O)O |  |  |  |  |  |  |  |  |  | 999.691 ± 0.082 kg/m3 | 990.13 ± 0.084 kg/m3 | 988.003 ± 0.084 kg/m3 |  |
